Assay results taken from patent US20230114728A1 (Venatorx Pharmaceuticals, Inc., priority 2019, published 2023).

Each compound was assayed against T1, A. baumannii PBP2 (Acinetobacter baumannii, UniProt D0C8Z9) (assay: Bocillin-FL fluorescence polarization competition binding assay, A. baumannii PBP2). Details: fluorescence polarization competition binding assay using Bocillin-FL; read-out: A. baumannii PBP2 Potency.
T1 construct: made in house
T1 sequence (D0C8Z9 1-672): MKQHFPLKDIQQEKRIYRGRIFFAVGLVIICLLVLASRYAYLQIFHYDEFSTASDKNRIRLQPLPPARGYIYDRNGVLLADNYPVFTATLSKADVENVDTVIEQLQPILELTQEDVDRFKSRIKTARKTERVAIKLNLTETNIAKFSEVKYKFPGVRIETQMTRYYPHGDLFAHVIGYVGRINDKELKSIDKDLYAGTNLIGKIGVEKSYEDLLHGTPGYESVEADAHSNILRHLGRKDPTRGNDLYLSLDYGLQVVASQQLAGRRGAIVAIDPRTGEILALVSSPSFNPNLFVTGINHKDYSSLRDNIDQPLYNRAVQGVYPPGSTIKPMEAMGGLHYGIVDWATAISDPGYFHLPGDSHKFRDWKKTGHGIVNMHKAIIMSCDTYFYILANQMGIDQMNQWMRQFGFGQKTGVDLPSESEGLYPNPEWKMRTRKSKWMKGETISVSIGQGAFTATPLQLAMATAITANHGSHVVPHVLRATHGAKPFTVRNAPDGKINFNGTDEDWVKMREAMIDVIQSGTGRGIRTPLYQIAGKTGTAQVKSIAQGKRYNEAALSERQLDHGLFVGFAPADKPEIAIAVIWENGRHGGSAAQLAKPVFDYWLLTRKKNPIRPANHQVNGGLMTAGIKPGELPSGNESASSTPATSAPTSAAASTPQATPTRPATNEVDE
In short: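 Fluorescence polarization (ex 490/em 520 nm) competition of inhibitors against Bocillin-FL at 0.1 μM, read up to 60 min. Final PBP levels: E. coli PBP3 1.5 μM; A. baumannii PBP2 2.5 μM, PBP3 0.2 μM in Tris pH 8.0/NaCl/glycerol/Tween 20; N. gonorrhoeae PBP2 […] in Hepes pH 8.0/NaCl/glycerol. EC50 = concentration halving PBP-bound Bocillin-FL.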

Row | Compound | EC50 [µM]
1 | CCN1CCN(C(=O)N[C@@H](C(=O)N[C@H]2Cc3cccc(C(=O)O)c3OB2O)c2c(O)cc(O)cc2F)C(=O)C1=O (single isomer, unassigned) [Example 182] | > 100
2 | CS(=O)(=O)N1CCN(C(=O)N[C@@H](C(=O)N[C@H]2Cc3ccc(F)c(C(=O)O)c3OB2O)c2cc(F)c(O)c(O)c2Cl)C1=O (single isomer, unassigned) [Example 189] | > 100
3 | O=C(NCCCN1CCN(C(=O)NC(C(=O)N[C@H]2Cc3ccc(F)c(C(=O)O)c3OB2O)c2ncc(O)cc2F)C(=O)C1=O)c1ccc(O)c(O)c1Cl (stereo partly drawn) [Example 3, (3R)-3-(2-(4-(3-(2-chloro-3,4-dihydroxybenzamido)propyl)-2,3-dioxopiperazine-1-carboxamido)-2-(3-fluoro-5-hydroxypyridin-2-yl)acetamido)-7-fluoro-2-hydroxy-3,4-dihydro-2H-benzo[e][1,2]oxaborinine-8-carboxylic acid] | > 100
4 | NCCCN1CCN(C(=O)N[C@@H](C(=O)N[C@H]2Cc3cc(Cl)c(F)c(C(=O)O)c3OB2O)c2c(F)cc(O)c(O)c2Cl)C(=O)C1=O [Example 190, (R)-3-((R)-2-(4-(3-aminopropyl)-2,3-dioxopiperazine-1-carboxamido)-2-(2-chloro-6-fluoro-3,4-dihydroxyphenyl)acetamido)-6-chloro-7-fluoro-2-hydroxy-3,4-dihydro-2H-benzo[e][1,2]oxaborinine-8-carboxylic acid] | > 100
5 | CCN1CCN(C(=O)N[C@@H](C(=O)N[C@H]2Cc3cc(Cl)c(F)c(C(=O)O)c3OB2O)c2c(F)cc(O)c(O)c2Cl)C(=O)C1=O [Example 191, (R)-6-chloro-3-((R)-2-(2-chloro-6-fluoro-3,4-dihydroxyphenyl)-2-(4-ethyl-2,3-dioxopiperazine-1-carboxamido)acetamido)-7-fluoro-2-hydroxy-3,4-dihydro-2H-benzo[e][1,2]oxaborinine-8-carboxylic acid] | 30 to 100
